Measurements: patent publication US20130210821A1, “Methods for Treating Obesity” (priority 2010, published 2013)
Where two headings read alike, the source gives them in different places.

Columns and labels:
hMetAP2 = hMetAP2 (Homo sapiens, UniProt P50579); test: MetAP2 enzyme assay; format: biochemical
hMetAP1 = hMetAP1 (Homo sapiens, UniProt P53582); test: MetAP1 enzyme assay; format: biochemical
HUVEC = HUVEC inhibition (selectivity); format: cell-based, human
HFF = HFF inhibition (selectivity); format: cell-based, human
[1] = Co2+ as metal ion, Table 2, read-out: hMetAP2 Co^2+ IC50
[2] = Mn2+ as metal ion, Table 2, read-out: hMetAP2 Mn^2+ IC50
[3] = Co2+ as metal ion, Table 2, read-out: hMetAP1 Co^2+ IC50
[4] = Mn2+ as metal ion, Table 2, read-out: hMetAP1 Mn^2+ IC50
[5] = Co2+ as metal ion, Table 1, read-out: hMetAP2 CO^2+ IC50
[6] = Mn2+ as metal ion, Table 1, read-out: hMetAP2 Mn^2+ IC50
[7] = Co2+ as metal ion, Table 1, read-out: hMetAP1 CO^2+ IC50
[8] = Mn2+ as metal ion, Table 1, read-out: hMetAP1 Mn^2+ IC50

Chain of hMetAP2 (P50579 whole entry): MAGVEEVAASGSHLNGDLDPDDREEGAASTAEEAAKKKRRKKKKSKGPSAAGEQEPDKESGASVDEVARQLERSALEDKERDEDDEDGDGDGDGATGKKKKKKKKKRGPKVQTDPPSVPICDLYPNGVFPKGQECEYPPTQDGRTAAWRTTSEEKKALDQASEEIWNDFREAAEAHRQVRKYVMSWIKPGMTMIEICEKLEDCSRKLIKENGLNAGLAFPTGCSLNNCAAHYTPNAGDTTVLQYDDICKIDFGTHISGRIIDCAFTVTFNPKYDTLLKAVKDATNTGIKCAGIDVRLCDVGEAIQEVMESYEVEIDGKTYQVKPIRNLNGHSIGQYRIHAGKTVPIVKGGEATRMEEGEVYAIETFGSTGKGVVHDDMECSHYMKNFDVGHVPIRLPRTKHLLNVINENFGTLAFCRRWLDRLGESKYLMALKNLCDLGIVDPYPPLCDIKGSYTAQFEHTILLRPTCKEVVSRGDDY

| Structure (SMILES) | IC50 (hMetAP2; [1]) | IC50 (hMetAP2; [2]) | IC50 (hMetAP1; [3]) | IC50 (hMetAP1; [4]) | IC50 (hMetAP2; [6]) | IC50 (hMetAP1; [7]) | IC50 (hMetAP1; [8]) | IC50 (HUVEC; Homo sapiens, Table 1) | IC50 (HFF; Homo sapiens, Table 1) | IC50 (HUVEC; Table 2) | IC50 (HFF; Table 2) | also measured |
| --- | --- | --- | --- | --- | --- | --- | --- | --- | --- | --- | --- | --- |
| OCCOc1ccc(Cl)c2cccnc12 [Entry 3b] |  |  |  |  |  |  |  | > 50 µM | > 50 µM |  |  | IC50 (hMetAP2): > 50 µM; IC50 (hMetAP2; read-out: hMetAP2 CO^2+ IC50, Co2+ as metal ion, Table 1): > 50 µM; IC50 (hMetAP1): > 50 µM; IC50 (hMetAP1; read-out: hMetAP1 CO^2+ IC50, Co2+ as metal ion, Table 1): > 50 µM |
| CN1CCN(Cc2cc(Cl)c3cccnc3c2O)CC1 [Entry 2e] |  |  |  |  |  |  |  |  |  |  |  | IC50 (HUVEC; Table 1): 9.6 µM; IC50 (HFF; Table 1): 15 µM |
| O=C(Nc1cc(Cl)c(Cl)cc1Cl)Oc1c(Cl)cc(Cl)c2cccnc12 [Entry 4a] | > 50 µM | 2.6 µM | > 50 µM | > 50 µM |  |  |  |  |  | 1.3 µM | 4.9 µM |  |
| O=C(Nc1cc(Cl)ccc1Cl)Oc1ccc(Cl)c2cccnc12 [Entry 4c] | 2.2 µM | 0.07 µM | > 50 µM | 12.6 µM |  |  |  |  |  | 1.2 µM | 8 µM |  |
| C=CCOc1ccc(Cl)c2cccnc12 [Entry 3a] |  |  |  |  |  |  |  | > 50 µM | > 50 µM |  |  |  |
| Oc1c(CN2CCCCC2)cc(Cl)c2cccnc12 [Entry 2b] |  |  |  |  |  | > 50 µM | > 50 µM |  |  |  |  |  |

Further lines, with some results ahead:

| IC50 (hMetAP2; [1]) | IC50 (hMetAP2; [2]) | IC50 (hMetAP1; [3]) | IC50 (hMetAP1; [4]) | IC50 (hMetAP2; [6]) | IC50 (hMetAP1; [7]) | IC50 (hMetAP1; [8]) | Structure (SMILES) | IC50 (HUVEC; Homo sapiens, Table 1) | IC50 (HFF; Homo sapiens, Table 1) | IC50 (HUVEC; Table 2) | IC50 (HFF; Table 2) | also measured |
| --- | --- | --- | --- | --- | --- | --- | --- | --- | --- | --- | --- | --- |
|  |  |  |  | 0.33 µM | 14 µM | > 50 µM | Oc1c(C(c2ccccc2)N2CCOCC2)cc(Cl)c2cccnc12 (stereo not drawn) [Entry 2f] | 8.6 µM | 19.2 µM |  |  | IC50 (hMetAP2; [5]): 8 µM |
|  |  |  |  | 28 µM |  |  | OCCN(CCO)Cc1cc(Cl)c2cccnc2c1O [Entry 2a] | 10.7 µM | 0.8 µM |  |  |  |
|  |  |  |  | 15.2 µM | > 50 µM | > 50 µM | Oc1c(CN2CCOCC2)ccc2cccnc12 [Entry 2c] | 33.3 µM | 9.8 µM |  |  | IC50 (hMetAP2; [5]): > 50 µM |
| > 50 µM | 0.9 µM | > 50 µM | > 50 µM |  |  |  | O=C(Nc1cc(Cl)ccc1Cl)Oc1c(Cl)cc(Cl)c2cccnc12 [Entry 4b] |  |  | 0.11 µM | 3 µM |  |
